For the assay, the system named is Trichophyton mentagropytes TIMM 2789. Kind of assay: MIC by microdilution method in 96-well plates, inactivation of agents by lecithin and Tween 80. Type of assay: cell-based. To be noted: TIMM2789, 168 h, 7 days. How it is done: MIC (minimum inhibitory concentration) was measured by means of the microdilution method by using 96-well plates to investigate the inactivation of respective agents caused by lecithin and Tween 80. The following four media were used. That is, a Sabouraud liquid medium (SDB) as a base medium, a medium obtained by adding 0.7% Tween 80 to SDB, a medium obtained by adding 1% lecithin to SDB, and a medium obtained by adding 0.7% Tween 80 and 1% lecithin to SDB were used. The following agents were used. That is, lanoconazole, bifonazole, and terbinafine were used. The following test strain was used. That is, Trichophyton mentagropytes TIMM 2789 (available from Institute of Medical Mycology of Teikyo University), which is generally used for the animal infection experiment, was used. The cultivation was performed at 28° C. for 7 days, while the microbial concentration upon the inoculation was about 10^4 conidia/ml. After the cultivation, it was regarded that MIC (μg/ml) was represented by the minimum agent concentration of the plate on which no microbial growth was observed by visual observation.
Background: Broth dilution looks for growth in wells or tubes with falling amounts of substance.

The mark [1] stands for this setting: Sabouraud liquid medium (SDB), additive none, 28° C.

≈ marks a conversion by molar mass, not a printed value.

Here are results for 3 compounds from US6929927B2, “Method of evaluating antifungal agent” (Pola Chemical Industries Inc., priority 2000, dated 2005).

As usually defined, the MIC is the lowest concentration that inhibits growth of the organism. Low readings indicate a more susceptible organism, high ones a less susceptible organism. `N#C/C(=C1/SCC(c2ccccc2Cl)S1)n1ccnc1` (stereo not drawn) [Lanoconazole, lanoconazole]: the MIC by setting is: (SDB with 0.7% Tween 80, 28° C.) 0.312 µg/mL (≈ 0.975 µM); (SDB with 1% lecithin, 28° C.) 0.078 µg/mL (≈ 0.244 µM); under setting [1], ≤ 0.005 µg/mL.
As to `CN(C/C=C/C#CC(C)(C)C)Cc1cccc2ccccc12` [Terbinafine, terbinafine], the minimum inhibitory concentration (MIC) reads like this: (SDB with 0.7% Tween 80, 28° C.) 0.312 µg/mL (≈ 1.07 µM); (SDB with 1% lecithin, 28° C.) 0.078 µg/mL (≈ 0.268 µM); under setting [1], ≤ 0.005 µg/mL.
For `c1ccc(-c2ccc(C(c3ccccc3)n3ccnc3)cc2)cc1` (stereo not drawn) [Bifonazole, bifonazole] the same measures were > 25 µg/mL, > 25 µg/mL and 1.56 µg/mL (≈ 5.03 µM).
